Reference: patent publication US10683486B2, “Methods for producing hepatocytes” (BioLamina AB, priority 2015, dated 2020)

Legend:
[1] = test system: H9 hESCs differentiating to hepatocyte like cells; test: Quantitative PCR gene expression during differentiation; assay type: cell-based, human; conditions: days 0, 3, 9, 18; normalized to GAPDH
Description: Total RNA was isolated from cells using Trizol reagent. RNA quantification and quality was assessed using a Nanodrop system. The Life Technologies Superscript III reverse transcription kit was employed to prepare the cDNA. Quantitative PCR was performed with Taqman Fast Advance Mastermix and the appropriate primer pair and analysed using a Roche LightCycler 480 Real-Time PCR System. Gene expression was normalized to glyceraldehyde 3-phosphate dehydrogenase (GAPDH) and expressed as relative expression over the control sample (hESC on Day 0 of differentiation). Quantitative PCRs were performed in triplicate. Data analysis was performed using Roche LightCycler 480 Software (version 1.5). […] Cell extracts were collected during differentiation and mRNA assessed on days 0, 3, 9, and 18. […] It should be remembered that the “LN-511” label refers to a substrate containing a blend of laminin-521 and laminin-111 at a 1:3 weight ratio. FIG. 3 is a set of six bar graphs showing gene expression during differentiation on the three substrates (MG, LN-521, and LN-511) for six different genes whose name is above each graph. Relative gene expression was normalized to the housekeeping gene GAPDH. […] Endoderm associated gene FOXA2 peaked on all substrates on day 3 and then decreased thereafter. […] HNF4A was detected at day 3 on all substrates, but by day 9, significant differences in expression patterns emerged.

[2] = test system: endoderm and hepatic cells differentiated from H9 hESCs; test: Immunostaining of endoderm and hepatoblast markers (hepatoblast specification); assay type: cell-based, human
Description: H9 human embryonic stem cells (hESCs) were cultured and maintained in a humidified 37° C., 5% CO2 incubator. Three different substrates were then prepared in 96-well plates. The first substrate was pre-coated with Matrigel® (MG), and served as a control. The second substrate was coated with 5 micrograms per square centimeter (μg/cm^2) of laminin-521 (LN-521).
Differentiation was initiated at 40% confluence, by replacing serum-free medium mTESR1 (Stem Cell Technologies) with endoderm differentiation medium—RPMI 1640 containing 1×B27 (Life Technologies), 100 ng/mL Activin A (PeproTech) and 50 ng/mL Wnt3a (R&D). The medium was changed every 24 hours, for 72 hours. On day 4, endoderm differentiation medium was replaced with hepatoblast differentiation medium, and this was renewed every second day for a further five days. The medium consisted of KO-DMEM (Life Technologies), Serum Replacement (Life Technologies), 0.5% Glutamax (Life Technologies), 1% non-essential amino acids (Life Technologies), 0.2% β-mercaptoethanol (Life Technologies) and 1% dimethyl sulofxide (Sigma) for 5 days. At Day 9, differentiating cells were cultured in hepatocyte maturation medium HepatoZYME (Life Technologies) containing 1% Glutamax (Life Technologies), supplemented with 10 ng/mL hepatocyte growth factor (Peprotech) and 20 ng/mL oncostatin m (Peprotech).
Immunocytochemistry analysis was subsequently performed on hESC-derived hepatocytes. Cell cultures were fixed in 100% ice-cold methanol at −20 degrees Celsius for 30 minutes, and adjacent cells were pre-washed twice with PBS buffer at room temperature. Cell monolayers were blocked with 0.1% PBS-Tween solution containing 10% bovine serum albumin for 1 hour. Subsequently, the monolayers were incubated with primary antibodies diluted in PBS-0.1% Tween/1% BSA at 4 degrees Celsius overnight. After 24 hours, the primary antibodies were removed and the fixed monolayers were washed three times with PBS-0.1% Tween/1% BSA. Cells were incubated with appropriate secondary antibodies diluted in PBS-0.1% Tween/1% BSA for one hour at room temperature and washed with three times with PBS. Cultures were then mounted with PermaFluor™ Aqueous Mounting Medium and counterstained with NucBlue Hoescht 33342. The cells were imaged with the Zeiss Axio Observer Z1 microscope with LD PlanNeoFluar objective lenses, and a Zeiss AxioCamMR3 camera was used for image acquisition. The images were processed through Zeiss Axiovision SE 64 Rel 4.8 and analyzed using Zeiss Axiovision version 4.9.1.0. The percentage of positive cells and standard deviation was estimated from at least five random fields of view.
Next, the efficiency of the differentiation process was measured. FIG. 4 is a set of 15 photomicrographs of endoderm and hepatic cells grown on the three different substrates, 10× or 20× magnification (indicated by scale), on day 3 of differentiation.
FOXA2 was expressed on all substrates at day 3. […] SOX17 staining was more varied across the three substrates; it was lowest on MG and highest on LN-521. As cell differentiation progressed and hepatic fate was specified, cells began expressing high levels of hepatoblast markers. AFP, HNF4a, and CK19 were expressed in the majority of cells on all three substrates. […] As shown, hepatoblast specification on all three matrices appeared equivalent and highly efficient.

Substance: LN-521: substrate coated with 5 μg/cm^2 of laminin-521, the protein formed by joining α5, β2 and γ1 chains
- AFP gene expression over time [1]: peaking on day 9 then decreasing at day 18
- HNF4A gene expression over time [1]: highest on day 9, decreasing by day 18
- AFP, percentage of positive cells and standard deviation ([2]; day 3 of differentiation): 98.3% ± 0.9
- CK19, percentage of positive cells and standard deviation ([2]; day 3 of differentiation): 98.5% ± 1.0
- FOXA2, percentage of positive cells and standard deviation ([2]; day 3 of differentiation): 80.4% ± 3.5
- HNF4A, percentage of positive cells and standard deviation ([2]; day 3 of differentiation): 86.4% ± 2.3
- SOX17, percentage of positive cells and standard deviation ([2]; day 3 of differentiation): 92.6% ± 1.8
- increase in cell size of differentiated hepatocytes ([2]; see CK19 photomicrographs): approximately 2 fold
